Data published in patent US20250368649A1, “TETRAHYDROPYRIDOPYRIMIDINE PAN-KRAS INHIBITORS” (Mirati Therapeutics, Inc., priority 2022, published 2025).

Legend:
KRas Q61H = KRas Q61H (Homo sapiens, UniProt P01116, Q61H); experiment: KRas binding assay (TR-FRET displacement), KRas Q61H; conditions: TR-FRET displacement
KRas G12D = KRas G12D (Homo sapiens, UniProt P01116, G12D); experiment: biochemical; conditions: Binding to KRas (IC50 nM) G12D, TR-FRET displacement, KRas G12D
KRas WT = KRas WT (Homo sapiens, UniProt P01116); experiment: KRas binding assay (TR-FRET displacement), KRas WT; conditions: TR-FRET displacement
KRas G13D = KRas G13D (Homo sapiens, UniProt P01116, G13D); type: binding; conditions: TR-FRET displacement, read-out: Binding to KRas (IC50 nM) G13D
KRas G12S = KRas G12S (Homo sapiens, UniProt P01116, G12S); type: binding; conditions: TR-FRET displacement, read-out: Binding to KRas (IC50 nM) G12S
KRas G12A = KRas G12A (Homo sapiens, UniProt P01116, G12A); type: binding; conditions: TR-FRET displacement, read-out: Binding to KRas (IC50 nM) G12A
KRas G12V = KRas G12V (Homo sapiens, UniProt P01116, G12V); experiment: biochemical; conditions: Binding to KRas (IC50 nM) G12V, TR-FRET displacement, KRas G12V
KRas G12C = KRas G12C (Homo sapiens, UniProt P01116, G12C); type: binding; conditions: TR-FRET displacement, read-out: Binding to KRas (IC50 nM) G12C
Chain of KRas G12C (P01116 1-169 isoform P01116-2 G12C): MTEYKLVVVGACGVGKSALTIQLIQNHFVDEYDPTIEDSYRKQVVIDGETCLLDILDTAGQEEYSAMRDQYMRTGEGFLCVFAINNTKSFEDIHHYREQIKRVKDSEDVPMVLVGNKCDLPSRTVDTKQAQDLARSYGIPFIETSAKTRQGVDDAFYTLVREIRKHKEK

Chain of KRas G13D (P01116 1-169 isoform P01116-2 G13D): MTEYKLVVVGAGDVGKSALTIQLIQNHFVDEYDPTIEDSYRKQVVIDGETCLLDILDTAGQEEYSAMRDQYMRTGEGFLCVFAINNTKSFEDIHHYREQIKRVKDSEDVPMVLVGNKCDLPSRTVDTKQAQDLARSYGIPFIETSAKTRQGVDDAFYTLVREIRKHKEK
Chain of KRas G12V (P01116 1-169 isoform P01116-2 G12V): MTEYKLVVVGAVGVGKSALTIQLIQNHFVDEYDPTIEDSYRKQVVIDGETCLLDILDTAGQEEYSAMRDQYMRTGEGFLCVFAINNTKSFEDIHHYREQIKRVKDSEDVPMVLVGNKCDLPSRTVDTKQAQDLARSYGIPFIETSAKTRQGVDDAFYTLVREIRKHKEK
Chain of KRas Q61H (P01116 1-169 isoform P01116-2 Q61H): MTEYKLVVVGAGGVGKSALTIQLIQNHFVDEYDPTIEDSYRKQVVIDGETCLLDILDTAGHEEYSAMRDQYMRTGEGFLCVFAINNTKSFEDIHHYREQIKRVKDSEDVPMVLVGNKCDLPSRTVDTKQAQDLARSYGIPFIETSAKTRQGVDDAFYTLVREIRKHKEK
Chain of KRas G12D (P01116 1-169 isoform P01116-2 G12D): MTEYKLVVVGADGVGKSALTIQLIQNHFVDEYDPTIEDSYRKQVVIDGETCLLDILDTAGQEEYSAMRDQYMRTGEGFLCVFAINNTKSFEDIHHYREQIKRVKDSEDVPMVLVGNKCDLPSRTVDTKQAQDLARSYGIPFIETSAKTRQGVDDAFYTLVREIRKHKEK
Chain of KRas WT (P01116 1-169 isoform P01116-2): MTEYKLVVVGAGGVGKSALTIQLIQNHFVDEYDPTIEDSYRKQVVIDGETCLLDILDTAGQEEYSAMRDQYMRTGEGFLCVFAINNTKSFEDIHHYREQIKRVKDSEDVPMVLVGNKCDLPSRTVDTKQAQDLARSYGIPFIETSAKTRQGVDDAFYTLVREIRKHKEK
Chain of KRas G12A (P01116 1-169 isoform P01116-2 G12A): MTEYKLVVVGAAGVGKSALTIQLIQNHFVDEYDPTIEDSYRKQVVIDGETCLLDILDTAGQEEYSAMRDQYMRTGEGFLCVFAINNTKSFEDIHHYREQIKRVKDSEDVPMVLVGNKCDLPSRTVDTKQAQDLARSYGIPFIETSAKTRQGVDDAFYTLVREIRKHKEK
Chain of KRas G12S (P01116 1-169 isoform P01116-2 G12S): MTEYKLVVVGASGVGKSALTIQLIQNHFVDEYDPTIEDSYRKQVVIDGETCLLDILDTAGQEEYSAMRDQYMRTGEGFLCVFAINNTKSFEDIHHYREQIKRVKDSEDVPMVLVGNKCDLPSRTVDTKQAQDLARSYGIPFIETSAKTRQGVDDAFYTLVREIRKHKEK

Structure (SMILES) | IC50 (KRas Q61H) | IC50 (KRas G12D) | IC50 (KRas WT) | IC50 (KRas G13D) | IC50 (KRas G12S) | IC50 (KRas G12A) | IC50 (KRas G12V) | IC50 (KRas G12C)
CCc1cccc2cccc(N3CCc4c(nc(OCC5(CN(C)C)CC5)nc4N4CCC(n5cn[nH]c5=O)CC4)C3)c12 [Example 688, 4-(1-(2-((1-((dimethylamino)methyl)cyclopropyl)methoxy)-7-(8-ethylnaphthalen-1-yl)-5,6,7,8-tetrahydropyrido[3,4-d]pyrimidin-4-yl)piperidin-4-yl)-2,4-dihydro-3H-1,2,4-triazol-3-one] | 18100 nM | 37400 nM | 14600 nM | 14500 nM | 17700 nM | 9730 nM | 6430 nM | 10000 nM
CCc1cccc2cccc(N3CCc4c(nc(OCC5(CN(C)C)CC5)nc4NCc4cc(CO)[nH]n4)C3)c12 [Example 539, (3-(((2-((1-((dimethylamino)methyl)cyclopropyl)methoxy)-7-(8-ethylnaphthalen-1-yl)-5,6,7,8-tetrahydropyrido[3,4-d]pyrimidin-4-yl)amino)methyl)-1H-pyrazol-5-yl)methanol] | 41300 nM | 9320 nM | 19900 nM | 42200 nM | 20700 nM | 17100 nM | 5880 nM | 8970 nM
CCc1cccc2cccc(N3CCc4c(nc(OCC5(CN(C)C)CC5)nc4N4CCOC(c5nccs5)C4)C3)c12 [Example 557, rel-(R)-1-(1-(((7-(8-(dimenaphthalen-1-yl)-4-(2-(thiazol-2-yl)morpholino)-5,6,7,8-tetrahydropyrido[3,4-d]pyrimidin-2-yl)oxy)methyl)cyclopropyl)-N,N-dimethylmethanamine] | 77100 nM | 20800 nM | 67900 nM | 96200 nM | 83200 nM | 71600 nM | 5870 nM | 44300 nM
CCc1cccc2cccc(N3CCc4c(nc(OCC5(CN(C)C)CC5)nc4NCc4nc(C5CC5)n[nH]4)C3)c12 [Example 675, N-((3-cyclopropyl-1H-1,2,4-triazol-5-yl)methyl)-2-((1-((dimethylamino)methyl)cyclopropyl)methoxy)-7-(8-ethylnaphthalen-1-yl)-5,6,7,8-tetrahydropyrido[3,4-d]pyrimidin-4-amine] | 25300 nM | 6300 nM | 16900 nM | 15300 nM | 16600 nM | 17300 nM | 3240 nM | 8480 nM
CCc1cccc2cccc(N3CCc4c(nc(OCC5(CN(C)C)CC5)nc4NCc4nnc(C5CCCO5)[nH]4)C3)c12 (stereo not drawn) [Example 531, 2-((1-((dimethylamino)methyl)cyclopropyl)methoxy)-7-(8-ethylnaphthalen-1-yl)-N-((5-(tetrahydrofuran-2-yl)-4H-1,2,4-triazol-3-yl)methyl)-5,6,7,8-tetrahydropyrido[3,4-d]pyrimidin-4-amine] | 22400 nM | 6830 nM | 17000 nM | 24900 nM | 19900 nM | 17200 nM | 5700 nM | 9540 nM
CCc1cccc2cccc(N3CCc4c(nc(OCC5(CN(C)C)CC5)nc4N4Cc5cn[nH]c5CC(C)C4)C3)c12 (stereo not drawn) [Example 534, 1-(1-(((7-(8-ethylnaphthalen-1-yl)-4-(7-methyl-4,6,7,8-tetrahydropyrazolo[4,3-c]azepin-5(1H)-yl)-5,6,7,8-tetrahydropyrido[3,4-d]pyrimidin-2-yl)oxy)methyl)cyclopropyl)-N,N-dimethylmethanamine] | 14600 nM | 7370 nM | 12100 nM | 18200 nM | 9330 nM | 9380 nM | 3540 nM | 4900 nM
CCc1cccc2cccc(N3CCc4c(nc(OCC5(CN(C)C)CC5)nc4N4CCCCC(CCOC)C4)C3)c12 (stereo not drawn) [Example 559, 1-(1-(((7-(8-ethylnaphthalen-1-yl)-4-(3-(2-methoxyethyl)azepan-1-yl)-5,6,7,8-tetrahydropyrido[3,4-d]pyrimidin-2-yl)oxy)methyl)cyclopropyl)-N,N-dimethylmethanamine] | 23300 nM | 24700 nM | 11900 nM | 45100 nM | 29400 nM | 11900 nM | 9180 nM | 12000 nM

Compounds with a lower IC50 (KRas Q61H), results first:

IC50 (KRas Q61H) | IC50 (KRas G12D) | IC50 (KRas WT) | IC50 (KRas G13D) | IC50 (KRas G12S) | IC50 (KRas G12A) | IC50 (KRas G12V) | IC50 (KRas G12C) | Structure (SMILES)
10700 nM | 18300 nM | 6320 nM | 9890 nM | 11900 nM | 11700 nM | 2520 nM | 6900 nM | CCc1cccc2cccc(N3CCc4c(nc(OCC5(CN(C)C)CC5)nc4N(C)CC4CCC(=O)N4)C3)c12 (stereo not drawn) [Example 551, 5-(((2-((1-((dimethylamino)methyl)cyclopropyl)methoxy)-7-(8-ethylnaphthalen-1-yl)-5,6,7,8-tetrahydropyrido[3,4-d]pyrimidin-4-yl)(methyl)amino)methyl)pyrrolidin-2-one]
9980 nM | 7360 nM | 7620 nM | 12300 nM | 4920 nM | 5970 nM | 2680 nM | 3860 nM | CCc1cccc2cccc(N3CCc4c(nc(OCC5(CN(C)C)CC5)nc4NCc4nnnn4C4CCC4)C3)c12 [Example 533, N-((1-cyclobutyl-1H-tetrazol-5-yl)methyl)-2-((1-((dimethylamino)methyl)cyclopropyl)methoxy)-7-(8-ethylnaphthalen-1-yl)-5,6,7,8-tetrahydropyrido[3,4-d]pyrimidin-4-amine]
9550 nM | 37600 nM | 11600 nM | 11800 nM | 4330 nM | 6050 nM | 5760 nM | 3470 nM | CCc1cccc2cccc(N3CCc4c(nc(OCC5(CN(C)C)CC5)nc4NCc4cc(C5CC5)nn4C)C3)c12 [Example 567, N-((3-cyclopropyl-1-methyl-1H-pyrazol-5-yl)methyl)-2-((1-((dimethylamino)methyl)cyclopropyl)methoxy)-7-(8-ethylnaphthalen-1-yl)-5,6,7,8-tetrahydropyrido[3,4-d]pyrimidin-4-amine]
5920 nM | 2000 nM | 5230 nM | 8140 nM | 5480 nM | 5580 nM | 1560 nM | 2850 nM | CCc1cccc2cccc(N3CCc4c(nc(OCC5(CN(C)C)CC5)nc4N4Cc5nncn5C(C)C4)C3)c12 (stereo not drawn) [Example 519, 1-(1-(((7-(8-ethylnaphthalen-1-yl)-4-(5-methyl-5,6-dihydro-[1,2,4]triazolo[4,3-a]pyrazin-7(8H)-yl)-5,6,7,8-tetrahydropyrido[3,4-d]pyrimidin-2-yl)oxy)methyl)cyclopropyl)-N,N-dimethylmethanamine]
2540 nM | 17400 nM | 1910 nM | 2110 nM | 1360 nM | 1670 nM | 1980 nM | 946 nM | CCc1cccc2cccc(N3CCc4c(nc(OCC5(CN(C)C)CC5)nc4N(C)Cc4nncn4C(C)C)C3)c12 [Example 549, 2-((1-((dimethylamino)methyl)cyclopropyl)methoxy)-7-(8-ethylnaphthalen-1-yl)-N-((4-isopropyl-4H-1,2,4-triazol-3-yl)methyl)-N-methyl-5,6,7,8-tetrahydropyrido[3,4-d]pyrimidin-4-amine]
1210 nM | 18600 nM | 2750 nM | 2660 nM | 1750 nM | 2420 nM | 3830 nM | 803 nM | CCc1cccc2cccc(N3CCc4c(nc(OCC5(CN(C)C)CC5)nc4NCCc4c(C)n[nH]c4C)C3)c12 [Example 554, N-(2-(3,5-dimethyl-1H-pyrazol-4-yl)ethyl)-2-((1-((dimethylamino)methyl)cyclopropyl)methoxy)-7-(8-ethylnaphthalen-1-yl)-5,6,7,8-tetrahydropyrido[3,4-d]pyrimidin-4-amine]
389 nM | 3220 nM | 252 nM | 372 nM | 318 nM | 296 nM | 1570 nM | 286 nM | CCc1cccc2cccc(N3CCc4c(nc(OCC5(CN(C)C)CC5)nc4N4CCCC(c5nnc[nH]5)C4)C3)c12 (stereo not drawn) [Example 514, 1-(1-(((4-(3-(4H-1,2,4-triazol-3-yl)piperidin-1-yl)-7-(8-ethylnaphthalen-1-yl)-5,6,7,8-tetrahydropyrido[3,4-d]pyrimidin-2-yl)oxy)methyl)cyclopropyl)-N,N-dimethylmethanamine]
37 nM | 39000 nM | 99 nM | 72 nM | 58 nM | 134 nM | 13700 nM | 74 nM | CCc1cccc2cccc(N3CCc4c(nc(OCC5(CN(C)C)CC5)nc4NCCc4nnc5n4CCC5)C3)c12 [Example 570, N-(2-(6,7-dihydro-5H-pyrrolo[2,1-c][1,2,4]triazol-3-yl)ethyl)-2-((1-((dimethylamino)methyl)cyclopropyl)methoxy)-7-(8-ethylnaphthalen-1-yl)-5,6,7,8-tetrahydropyrido[3,4-d]pyrimidin-4-amine]
